# Key:
# [1] = tested on: WM9 transfectants (vector, PRL-1, PRL-1R86); test: Growth of WM9 transfectants, MTT assay; type: cell-based, human; details: 50 or 100 μg/ml
# Procedure: NIH3T3 (Yi, et al., Blood 85, 87 (1995)), WM9 (Forsberg, et al., Proc. Nat. Acad. Sci. USA 90, 393 (1993)), DU145 (Mickey, et al., Cancer Res. 37, 4049 (1977)), LoVo (Drewinko, et al., Cancer Res. 36, 467 (1976)), HEY (Buick, et al., Cancer Res. 45, 3668 (1985)), U251 (Yoshida, et al., Cancer 50, 410 (1982)), A549 (Giard, et al., J. Natl. Cancer Inst. 51, 1417 (1973)) and SK-N-SH (Helson, et al., Cancer Res. 35, 2594 (1975)) cell lines have been described and were cultured in RPMI 1640 supplemented with 10% fetal calf serum (FCS). For measurement of sodium stibogluconate effects on cell growth in vitro, cells were cultured in the absence (−) or presence (+) of various amounts of sodium stibogluconate for 6 days with viable cells quantified by MTT assays (Mosmann, J. Immunol. Methods 65, 55 (1983)). Percentages of growth inhibition by sodium stibogluconate were calculated (.+−.x %).
# (§1) The effects of sodium stibogluconate on intracellular PTPases were assessed using NIH3T3 or WM9 transfectants. […]
# To further assess whether expression of the PRL-1R86 mutant affects sodium stibogluconate-induced growth inhibition, the transfectants were cultured in the absence or presence of sodium stibogluconate for 6 days with viable cells determined by MTT assays. […]
# [2] = target: T1, intracellular Flag-PRL-2 (Homo sapiens, UniProt Q12974); test: Immunocomplex PTPase assay, Flag-PRL-2 NIH3T3 transfectants; type: cell-based
# T1 construct: expressed in transfected cells; host or cells: NIH3T3 (pBabepuro, puromycin-selected)
# T1 sequence (Q12974 whole entry): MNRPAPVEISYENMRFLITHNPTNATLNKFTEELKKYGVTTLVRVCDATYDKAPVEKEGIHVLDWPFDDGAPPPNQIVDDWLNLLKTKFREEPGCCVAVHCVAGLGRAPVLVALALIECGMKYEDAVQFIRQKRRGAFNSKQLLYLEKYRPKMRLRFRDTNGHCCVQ
# Procedure: Immunocomplex PTPase assays were performed to assess the effects of sodium stibogluconate on intracellular PTPases. Cells were untreated or treated with sodium stibogluconate for 5 minutes, washed with fresh medium and then lysed in cold lysis buffer (50 mM Tris, pH 7.4; 150 mM NaCl; 1% NP40; 2 mM PMSF; 20 μg/ml of Aprotinin). The lysates were incubated with an anti-Flag antibody in immunoprecipitation assays. The immunocomplexes were collected with protein G sepharose beads (Pharmacia) and washed in cold lysis buffer for 4 times. […] C. for 18 hrs. 100 µL of malachite green solution (UBI) was added to each reaction prior to measurement of OD660 to quantify the amounts of free phosphate cleaved by the PTPases from the peptide substrate (Pathak et al., J. Imumol. 167, 3391 (2001)). The remaining 10% contents of individual samples were analyzed by SDS-PAGE/Western blotting to quantify the relative amounts of the phosphatase proteins. […]
# as §1
# [3] = tested on: DR cells; test: DR lymphoma cell growth, MTT assay; type: cell-based, human; details: day 6; single agent at 50 μg/ml and 100 μg/ml
# Procedure: (§2) For cell proliferation assays, cells were grown in 10% FCS culture medium containing various amounts of IFNs and/or sodium stibogluconate in 96 well plates and cultured at 37° C. for 3 or 6 days as indicated. The numbers of viable cells in proliferation assays were determined by MTT assays as described in Phatak et al., J. Immunol. 167, 3391 (2001).
# [4] = tested on: Renca cells; test: Renca cell growth in culture, MTT assay; type: cell-based, murine; details: SSG 6.25-200 μg/ml, 6 days; listed as SSG
# Excerpt: Renca (Murphy, G. P., and W. J. Hrushesky. 1973. A murine renal cell carcinoma. J Natl Cancer Inst 50:1013), Jurkat (Gillis, S., and J. Watson. 1980. Biochemical and biological characterization of lymphocyte regulatory molecules. V. Identification of an interleukin 2-producing human leukemia T cell line. J Exp Med 152:1709) and WM9 (Forsberg, K., 1. Valyi-Nagy, C. H. Heldin, M. Herlyn, and B. Westermark. 1993. Platelet-derived growth factor (PDGF) in oncogenesis: development of a vascular connective tissue stroma in xenotransplanted human melanoma producing PDGF-BB. Proc Natl Acad Sci USA 90:393) cell lines were obtained from a colleague at the Cleveland Clinic Foundation (CCF) and cultured in RPMI 1640 medium supplemented with 10% fetal calf serum (FCS). […] SSG has been described previously (Yi, T., M. K. Pathak, D. J. Lindner, M. E. Ketterer, C. Farver, and E. C. Borden. 2002. Anticancer activity of sodium stibogluconate in synergy with IFNs. J Immunol 169:5978). For cell growth inhibition assays, cells were cultured in absence or presence of various amounts of SSG for 6 days with viable cells quantified by MTT assays as described elsewhere (Pathak, M. K., and T. Yi. 2001. Sodium stibogluconate is a potent inhibitor of protein tyrosine phosphatases and augments cytokine responses in hemopoietic cell lines. J Immunol 167:3391).
# [5] = tested on: C42 cells; test: C42 prostate cancer cell growth; type: cell-based, human
# Procedure: as §2
compound,measurement,setting,value
O.O.O.O.O.O.O.O.O.O=C([O-])[C@@H]1[O][Sb]2([O-])([O][Sb]34([OH])[O][C@H]([C@H](O)CO)[C@H]([O]3)[C@H](C(=O)[O-])[O]4)[O][C@H]([C@H](O)CO)[C@@H]1[O]2.[Na+].[Na+].[Na+] [sodium stibogluconate],growth inhibition of R86 cells,[1],only modest growth inhibition
same,time required for full removal of effect on intracellular PRL-2 activity,[2],at least 24 hours
same,PTPase activity of immunocomplexes from treated Flag-PRL-2 transfectants,[2]; cells treated 5 min,lack of PTPase activity
same,growth inhibition of DR cells,[3],complete or near complete killing
same,Renca cell growth in culture,[4],failed to inhibit Renca cell proliferation in culture
same,response of C42 prostate cancer cell line,[5],highly resistant
